Measured values published in publication PMC7830924, “Discovery of Natural Inhibitors of Cholinesterases from Hydrangea: In Vitro and In Silico Approaches” (Nutrients, 2021).

Key:
[1] = biological target: T1, AChE (Homo sapiens, UniProt P22303); assay: biochemical; details: for AChE Inhibition Type: determined by Dixon and Lineweaver–Burk plots; for IC50: mean ± S.D. of triplicate experiments, substrate ACh iodide; for Ki: obtained by Dixon plot
T1 construct: purchased Sigma-Aldrich
Experimental: (§1) Cholinesterases, trypsin, chymotrypsin, elastase and BACE1, assays were performed according to the previous methods. AChE, BChE, trypsin, chymotrypsin and elastase were assayed according to the manual depicted in the reference using ACh iodide, butyrylthiocholine chloride, N-benzoyl-L-Arg-pNA, N-benzoyl-L-Tyr-pNA and N-succinyl-Ala-Ala-Ala-pNA as substrates, respectively. BACE1 assay was achieved using a Rh-[…]-Quencher as a substrate. […] The inhibitory constant (Ki) was obtained by Dixon plot, and Vmax and Km were defined by Lineweaver–Burk plots. These kinetic parameters were calculated using the SigmaPlot™ (version 12.3, Systat Software, Inc., San Jose, CA, USA).

[2] = biological target: T2, BChE (Homo sapiens, UniProt P06276); assay: BChE inhibition assay and kinetic study; format: biochemical; details: for BChE Inhibition Type: determined by Dixon and Lineweaver–Burk plots; for IC50: mean ± S.D. of triplicate experiments, substrate butyrylthiocholine chloride; for Ki: obtained by Dixon plot
T2 construct: purchased Sigma-Aldrich
Experimental: as §1

[3] = test system: T3, BACE1; assay: BACE1 FRET assay (enzyme selectivity); format: biochemical; details: mean ± SD of triplicate
T3 construct: purchased Pan Vera
Experimental: A beta-site APP cleaving enzyme 1 (BACE1) fluorescence resonance energy transfer (FRET) assay kit was purchased from Pan Vera (Madison, WI, USA).
as §1

[4] = test system: Trypsin; assay: Trypsin inhibition assay (enzyme selectivity); format: biochemical; details: mean ± SD of triplicate
Experimental: as §1

[5] = test system: T4, Chymotrypsin; assay: Chymotrypsin inhibition assay (enzyme selectivity); format: biochemical; details: mean ± SD of triplicate
T4 construct: purchased Sigma-Aldrich
Experimental: as §1

[6] = test system: Elastase; assay: Elastase inhibition assay (enzyme selectivity); format: biochemical; details: mean ± SD of triplicate
Experimental: as §1

T1 sequence (P22303 32-614): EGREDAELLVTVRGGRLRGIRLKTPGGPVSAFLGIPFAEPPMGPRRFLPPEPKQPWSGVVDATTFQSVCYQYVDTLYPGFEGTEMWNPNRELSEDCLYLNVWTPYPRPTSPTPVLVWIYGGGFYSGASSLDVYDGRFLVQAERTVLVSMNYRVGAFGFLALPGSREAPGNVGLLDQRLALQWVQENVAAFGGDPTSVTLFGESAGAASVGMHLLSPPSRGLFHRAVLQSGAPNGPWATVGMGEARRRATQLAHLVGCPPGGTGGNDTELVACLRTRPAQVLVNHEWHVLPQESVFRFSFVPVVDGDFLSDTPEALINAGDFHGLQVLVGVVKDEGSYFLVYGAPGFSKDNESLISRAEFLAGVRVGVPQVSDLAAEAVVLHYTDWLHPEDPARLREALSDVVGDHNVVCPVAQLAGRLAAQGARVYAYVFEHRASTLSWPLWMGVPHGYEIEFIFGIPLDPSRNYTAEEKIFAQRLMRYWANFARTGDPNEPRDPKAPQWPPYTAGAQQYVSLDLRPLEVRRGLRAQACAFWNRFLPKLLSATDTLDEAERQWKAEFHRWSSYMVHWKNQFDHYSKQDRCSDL
T2 sequence (P06276 29-602): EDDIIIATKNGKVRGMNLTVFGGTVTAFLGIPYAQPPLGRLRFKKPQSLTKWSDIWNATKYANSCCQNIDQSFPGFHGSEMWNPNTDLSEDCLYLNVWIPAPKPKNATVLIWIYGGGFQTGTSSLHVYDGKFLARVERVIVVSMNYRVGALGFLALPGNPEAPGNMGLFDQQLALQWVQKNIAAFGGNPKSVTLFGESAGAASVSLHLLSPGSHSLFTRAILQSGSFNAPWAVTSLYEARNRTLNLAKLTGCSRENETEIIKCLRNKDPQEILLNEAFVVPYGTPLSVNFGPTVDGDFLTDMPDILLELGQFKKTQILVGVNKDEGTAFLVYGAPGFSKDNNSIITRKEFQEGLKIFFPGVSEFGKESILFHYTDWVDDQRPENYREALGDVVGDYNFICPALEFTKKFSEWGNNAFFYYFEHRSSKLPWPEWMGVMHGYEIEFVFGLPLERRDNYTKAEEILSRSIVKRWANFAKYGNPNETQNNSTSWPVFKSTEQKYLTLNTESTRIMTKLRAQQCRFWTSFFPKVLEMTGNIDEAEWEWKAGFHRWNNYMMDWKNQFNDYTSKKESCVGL

SMILES | AChE Inhibition Type [1] | IC50 [1] [µM] | Ki [1] [µM] | BChE Inhibition Type [2] | IC50 [2] [µM] | Ki [2] [µM] | Inhibitory activity (%) against BACE1 ([3]; compound 50 µM) [%] | Inhibitory activity (%) against BACE1 ([3]; compound 100 µM) [%] | Inhibitory activity (%) against Trypsin ([4]; compound 50 µM) [%] | Inhibitory activity (%) against Trypsin ([4]; compound 100 µM) [%] | Inhibitory activity (%) against Chymotrypsin ([5]; compound 50 µM) [%] | Inhibitory activity (%) against Chymotrypsin ([5]; compound 100 µM) [%] | Inhibitory activity (%) against Elastase ([6]; compound 50 µM) [%] | Inhibitory activity (%) against Elastase ([6]; compound 100 µM) [%]
O=C1OC(c2ccc(O)cc2)Cc2cc(O)cc(O)c21 (centres unmarked) [TC, thunberginol C] | Non-competitive | 42 ± 1.06 | 45.6 | Non-competitive | 42.4 ± 3.67 | 49.2 | 25.81 ± 3.11 | 28.68 ± 1.87 | −0.27 ± 1.51 | 0.07 ± 2.00 | 6.04 ± 2.42 | 8.50 ± 1.40 | 1.89 ± 1.09 | 0.42 ± 0.36
COc1ccc2c3c1O[C@H]1C[C@@H](O)C=C[C@@]31CCN(C)C2 [Galantamine, reference compound] | – | – | – | Competitive | – | – | – | – | – | – | – | – | – | –
CC(=O)OC[C@H]1O[C@@H](Oc2cccc3c2C(=O)O[C@@H](c2ccc(OC(C)=O)cc2)C3)[C@H](OC(C)=O)[C@@H](OC(C)=O)[C@@H]1OC(C)=O [HGP, hydrangenol 8-O-glucoside pentaacetate] | Non-competitive | 22.7 ± 1.63 | 36.1 | Non-competitive | 41 ± 3.03 | 44.9 | 20.02 ± 0.52 | 25.21 ± 1.60 | 1.26 ± 3.36 | 3.12 ± 1.69 | 7.16 ± 3.38 | 5.15 ± 3.70 | 3.77 ± 1.66 | 1.47 ± 1.31
